Experimental data published in article PMC5761078 (Cell reports, 2018).

Experiments:
[1] = molecular target: T1, A1R (Mus musculus, UniProt Q60612); assay: TEpacVV FRET imaging of cAMP in primary neurons; format: cell-based; conditions: agonist, cAMP decrease, bath application
T1 sequence (Q60612 1-326): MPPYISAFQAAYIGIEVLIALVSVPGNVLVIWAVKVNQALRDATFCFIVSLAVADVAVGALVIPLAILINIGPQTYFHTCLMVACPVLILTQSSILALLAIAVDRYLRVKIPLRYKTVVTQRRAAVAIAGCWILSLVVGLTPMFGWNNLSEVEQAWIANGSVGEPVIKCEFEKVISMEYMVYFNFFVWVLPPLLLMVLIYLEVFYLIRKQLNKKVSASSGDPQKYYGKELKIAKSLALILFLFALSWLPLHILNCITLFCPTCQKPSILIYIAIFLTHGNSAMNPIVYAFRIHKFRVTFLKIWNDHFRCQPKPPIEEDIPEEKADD

[2] = molecular target: D1 dopamine receptor (D1R) (Mus musculus, UniProt Q61616); conditions: agonist, cAMP increase; dMSN cell body; bath application
Chain of D1 dopamine receptor (D1R) (Q61616 whole entry): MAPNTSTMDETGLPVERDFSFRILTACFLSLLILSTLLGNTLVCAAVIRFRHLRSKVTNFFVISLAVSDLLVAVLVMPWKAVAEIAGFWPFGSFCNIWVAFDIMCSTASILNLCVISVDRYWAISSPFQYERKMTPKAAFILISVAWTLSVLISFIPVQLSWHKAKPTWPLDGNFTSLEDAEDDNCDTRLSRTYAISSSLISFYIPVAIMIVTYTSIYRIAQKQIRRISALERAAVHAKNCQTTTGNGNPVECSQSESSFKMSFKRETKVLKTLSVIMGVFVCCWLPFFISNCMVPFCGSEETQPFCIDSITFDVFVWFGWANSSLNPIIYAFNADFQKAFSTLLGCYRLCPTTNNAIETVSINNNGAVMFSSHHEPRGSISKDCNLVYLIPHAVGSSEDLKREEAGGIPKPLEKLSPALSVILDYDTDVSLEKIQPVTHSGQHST

Compound `Nc1ncnc2c1ncn2[C@@H]1O[C@H](CO)[C@@H](O)[C@H]1O` [adenosine] has an EC50 ([1]; dMSN cell body) of 112 ± 34 nM.
With `NCCc1ccc(O)c(O)c1` [dopamine] the EC50 [2] was 76.5 ± 13.9 nM.
In the case of `C[C@@]1(O)[C@H](O)[C@@H](CO)O[C@H]1n1cnc2c(NC3CCCC3)nc(Cl)nc21` [2′MeCCPA], the EC50 ([1]; dMSN) is reported as 14.6 ± 4.1 nM.
